Data published in the NIST ThermoML archive (doi:10.1016/j.jct.2016.09.013).
± gives the expanded uncertainty stated by the source.

Conditions: Liquid; for viscosity: Concentric cylinders viscometry

In the case of `CCn1cc[n+](C)c1.COP(=O)([O-])OC` [1-ethyl-3-methylimidazolium dimethylphosphate], the viscosity (303.15 K, 101.33 kPa) is reported as 186 ± 3.9 mPa·s, the mass density (303.15 K, 101.33 kPa, Vibrating tube method) is reported as 1214.4 ± 1.6 kg/m3 and the mass density (312 K, 10000 kPa, Bellows volumetry) is reported as 1212.6 ± 1.9 kg/m3. It also gave a mass density (312 K, 20000 kPa, Bellows volumetry) of 1216.9 ± 1.9 kg/m3, a mass density (312 K, 30000 kPa, Bellows volumetry) of 1221 ± 1.9 kg/m3 and a mass density (312 K, 40000 kPa, Bellows volumetry) of 1224.9 ± 1.9 kg/m3. It also gave a mass density (312 K, 50000 kPa, Bellows volumetry) of 1228.8 ± 1.9 kg/m3, a mass density (312 K, 60000 kPa, Bellows volumetry) of 1232.5 ± 1.9 kg/m3 and a viscosity (313.15 K, 101.33 kPa) of 107.5 ± 1.7 mPa·s. For the same molecule, the mass density (313.15 K, 101.33 kPa, Vibrating tube method) was 1207.6 ± 1.5 kg/m3, the viscosity (323.15 K, 101.33 kPa) was 67.1 ± 0.91 mPa·s and the mass density (323.15 K, 101.33 kPa, Vibrating tube method) was 1200.9 ± 1.5 kg/m3. The mass density (331.7 K, 10000 kPa, Bellows volumetry) was 1199.7 ± 1.8 kg/m3, the mass density (331.7 K, 20000 kPa, Bellows volumetry) was 1204.1 ± 1.8 kg/m3 and the mass density (331.7 K, 30000 kPa, Bellows volumetry) was 1208.5 ± 1.9 kg/m3. It also gave a mass density (331.7 K, 40000 kPa, Bellows volumetry) of 1212.6 ± 1.9 kg/m3, a mass density (331.7 K, 50000 kPa, Bellows volumetry) of 1216.6 ± 1.9 kg/m3 and a mass density (331.7 K, 60000 kPa, Bellows volumetry) of 1220.4 ± 1.9 kg/m3. It also gave a mass density (331.7 K, 70000 kPa, Bellows volumetry) of 1224.1 ± 1.9 kg/m3, a mass density (331.7 K, 80000 kPa, Bellows volumetry) of 1227.8 ± 1.9 kg/m3 and a mass density (331.7 K, 90000 kPa, Bellows volumetry) of 1231.3 ± 1.9 kg/m3. For the same molecule, the mass density (331.7 K, 100000 kPa, Bellows volumetry) was 1234.7 ± 1.9 kg/m3, the mass density (331.7 K, 110000 kPa, Bellows volumetry) was 1238.1 ± 1.9 kg/m3 and the mass density (331.7 K, 120000 kPa, Bellows volumetry) was 1241.3 ± 1.9 kg/m3. For the same molecule, the mass density (331.7 K, 130000 kPa, Bellows volumetry) was 1244.5 ± 1.9 kg/m3, the mass density (331.7 K, 140000 kPa, Bellows volumetry) was 1247.6 ± 1.9 kg/m3 and the mass density (331.7 K, 150000 kPa, Bellows volumetry) was 1250.8 ± 1.9 kg/m3. For the same molecule, the mass density (331.7 K, 160000 kPa, Bellows volumetry) was 1253.7 ± 1.9 kg/m3, the mass density (331.7 K, 170000 kPa, Bellows volumetry) was 1256.7 ± 1.9 kg/m3 and the mass density (331.7 K, 180000 kPa, Bellows volumetry) was 1259.5 ± 1.9 kg/m3. It also gave a mass density (331.7 K, 190000 kPa, Bellows volumetry) of 1262.3 ± 1.9 kg/m3, a mass density (331.7 K, 200000 kPa, Bellows volumetry) of 1265.2 ± 1.9 kg/m3 and a viscosity (333.15 K, 101.33 kPa) of 44.64 ± 0.6 mPa·s. For the same molecule, the mass density (333.15 K, 101.33 kPa, Vibrating tube method) was 1194.3 ± 1.5 kg/m3, the viscosity (343.15 K, 101.33 kPa) was 31.27 ± 0.42 mPa·s and the mass density (343.15 K, 101.33 kPa, Vibrating tube method) was 1187.6 ± 1.5 kg/m3. The mass density (351.7 K, 10000 kPa, Bellows volumetry) was 1186.8 ± 1.8 kg/m3, the mass density (351.7 K, 20000 kPa, Bellows volumetry) was 1191.5 ± 1.8 kg/m3 and the mass density (351.7 K, 30000 kPa, Bellows volumetry) was 1196 ± 1.8 kg/m3. For the same molecule, the mass density (351.7 K, 40000 kPa, Bellows volumetry) was 1200.3 ± 1.8 kg/m3, the mass density (351.7 K, 50000 kPa, Bellows volumetry) was 1204.5 ± 1.8 kg/m3 and the mass density (351.7 K, 60000 kPa, Bellows volumetry) was 1208.5 ± 1.9 kg/m3. It also gave a mass density (351.7 K, 70000 kPa, Bellows volumetry) of 1212.4 ± 1.9 kg/m3, a mass density (351.7 K, 80000 kPa, Bellows volumetry) of 1216.2 ± 1.9 kg/m3 and a mass density (351.7 K, 90000 kPa, Bellows volumetry) of 1219.8 ± 1.9 kg/m3. For the same molecule, the mass density (351.7 K, 100000 kPa, Bellows volumetry) was 1223.3 ± 1.9 kg/m3, the mass density (351.7 K, 110000 kPa, Bellows volumetry) was 1226.9 ± 1.9 kg/m3 and the mass density (351.7 K, 120000 kPa, Bellows volumetry) was 1230.4 ± 1.9 kg/m3. The mass density (351.7 K, 130000 kPa, Bellows volumetry) was 1233.6 ± 1.9 kg/m3, the mass density (351.7 K, 140000 kPa, Bellows volumetry) was 1236.9 ± 1.9 kg/m3 and the mass density (351.7 K, 150000 kPa, Bellows volumetry) was 1240 ± 1.9 kg/m3. It also gave a mass density (351.7 K, 160000 kPa, Bellows volumetry) of 1243.2 ± 1.9 kg/m3, a mass density (351.7 K, 170000 kPa, Bellows volumetry) of 1246.2 ± 1.9 kg/m3 and a mass density (351.7 K, 180000 kPa, Bellows volumetry) of 1249.1 ± 1.9 kg/m3. The mass density (351.7 K, 190000 kPa, Bellows volumetry) was 1252 ± 1.9 kg/m3, the mass density (351.7 K, 200000 kPa, Bellows volumetry) was 1255 ± 1.9 kg/m3 and the viscosity (353.15 K, 101.33 kPa) was 22.85 ± 0.3 mPa·s. For the same molecule, the mass density (353.15 K, 101.33 kPa, Vibrating tube method) was 1181.1 ± 1.5 kg/m3, the viscosity (363.15 K, 101.33 kPa) was 17.29 ± 0.23 mPa·s and the mass density (363.15 K, 101.33 kPa, Vibrating tube method) was 1174.5 ± 1.5 kg/m3. For the same molecule, the mass density (372.4 K, 10000 kPa, Bellows volumetry) was 1174.1 ± 1.8 kg/m3, the mass density (372.4 K, 20000 kPa, Bellows volumetry) was 1179 ± 1.8 kg/m3 and the mass density (372.4 K, 30000 kPa, Bellows volumetry) was 1182.8 ± 1.8 kg/m3. The mass density (372.4 K, 40000 kPa, Bellows volumetry) was 1188.3 ± 1.8 kg/m3, the mass density (372.4 K, 50000 kPa, Bellows volumetry) was 1192.6 ± 1.8 kg/m3 and the mass density (372.4 K, 60000 kPa, Bellows volumetry) was 1196.9 ± 1.8 kg/m3. It also gave a mass density (372.4 K, 70000 kPa, Bellows volumetry) of 1200.9 ± 1.8 kg/m3, a mass density (372.4 K, 80000 kPa, Bellows volumetry) of 1204.9 ± 1.8 kg/m3 and a mass density (372.4 K, 90000 kPa, Bellows volumetry) of 1208.7 ± 1.9 kg/m3. It also gave a mass density (372.4 K, 100000 kPa, Bellows volumetry) of 1212.4 ± 1.9 kg/m3, a mass density (372.4 K, 110000 kPa, Bellows volumetry) of 1216 ± 1.9 kg/m3 and a mass density (372.4 K, 120000 kPa, Bellows volumetry) of 1219.5 ± 1.9 kg/m3. For the same molecule, the mass density (372.4 K, 130000 kPa, Bellows volumetry) was 1223 ± 1.9 kg/m3, the mass density (372.4 K, 140000 kPa, Bellows volumetry) was 1226.3 ± 1.9 kg/m3 and the mass density (372.4 K, 150000 kPa, Bellows volumetry) was 1229.6 ± 1.9 kg/m3. For the same molecule, the mass density (372.4 K, 160000 kPa, Bellows volumetry) was 1232.8 ± 1.9 kg/m3, the mass density (372.4 K, 170000 kPa, Bellows volumetry) was 1235.9 ± 1.9 kg/m3 and the mass density (372.4 K, 180000 kPa, Bellows volumetry) was 1238.9 ± 1.9 kg/m3. It also gave a mass density (372.4 K, 190000 kPa, Bellows volumetry) of 1242 ± 1.9 kg/m3, a mass density (372.4 K, 200000 kPa, Bellows volumetry) of 1244.9 ± 1.9 kg/m3 and a viscosity (373.15 K, 101.33 kPa) of 13.47 ± 0.18 mPa·s. For the same molecule, the mass density (373.15 K, 101.33 kPa, Vibrating tube method) was 1168.1 ± 1.5 kg/m3, the mass density (391.9 K, 10000 kPa, Bellows volumetry) was 1161.7 ± 1.8 kg/m3 and the mass density (391.9 K, 20000 kPa, Bellows volumetry) was 1166.8 ± 1.8 kg/m3. For the same molecule, the mass density (391.9 K, 30000 kPa, Bellows volumetry) was 1171.8 ± 1.8 kg/m3, the mass density (391.9 K, 40000 kPa, Bellows volumetry) was 1176.6 ± 1.8 kg/m3 and the mass density (391.9 K, 50000 kPa, Bellows volumetry) was 1181.2 ± 1.8 kg/m3. The mass density (391.9 K, 60000 kPa, Bellows volumetry) was 1185.6 ± 1.8 kg/m3, the mass density (391.9 K, 70000 kPa, Bellows volumetry) was 1189.9 ± 1.8 kg/m3 and the mass density (391.9 K, 80000 kPa, Bellows volumetry) was 1194 ± 1.8 kg/m3. It also gave a mass density (391.9 K, 90000 kPa, Bellows volumetry) of 1198 ± 1.8 kg/m3, a mass density (391.9 K, 100000 kPa, Bellows volumetry) of 1201.8 ± 1.9 kg/m3 and a mass density (391.9 K, 110000 kPa, Bellows volumetry) of 1205.6 ± 1.9 kg/m3. The mass density (391.9 K, 120000 kPa, Bellows volumetry) was 1209.1 ± 1.9 kg/m3, the mass density (391.9 K, 130000 kPa, Bellows volumetry) was 1212.7 ± 1.9 kg/m3 and the mass density (391.9 K, 140000 kPa, Bellows volumetry) was 1216.1 ± 1.9 kg/m3. It also gave a mass density (391.9 K, 150000 kPa, Bellows volumetry) of 1219.5 ± 1.9 kg/m3, a mass density (391.9 K, 160000 kPa, Bellows volumetry) of 1222.8 ± 1.9 kg/m3 and a mass density (391.9 K, 170000 kPa, Bellows volumetry) of 1226 ± 1.9 kg/m3. The mass density (391.9 K, 180000 kPa, Bellows volumetry) was 1229.1 ± 1.9 kg/m3, the mass density (391.9 K, 190000 kPa, Bellows volumetry) was 1232.2 ± 1.9 kg/m3 and the mass density (391.9 K, 200000 kPa, Bellows volumetry) was 1235.3 ± 1.9 kg/m3.
